Assay results as given in patent publication US20230072421A1, “TARGETED RADIOPHARMACEUTICALS FOR THE DIAGNOSIS AND TREATMENT OF PROSTATE CANCER” (Bayer AS, priority 2019, published 2023).

Assays:
[1] = tested on: 22Rv1 cells; experiment: Cell proliferation assay (CellTiter-Glo, 5-day exposure), 22Rv1; type: cell-based; conditions: 22Rv1, 1000 cells/well, Th-227 labelled at 375 kBq/nmol, mean of 1 to 6 experiments
In short: (§1)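 Seeding was 4000 cells/well for VCaP and 1000 cells/well for 22Rv1, C4-2 and LNCaP, followed by overnight culture at 37° C and 5% CO2. Cells were exposed to Thorium-227-labeled PSMA ligands for 5 days, and viability was measured by CellTiter-Glo luminescence both at treatment start and at the end.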

[2] = tested on: C4-2 cells; experiment: Cell proliferation assay (CellTiter-Glo, 5-day exposure), C4-2; type: cell-based; conditions: C4-2, 1000 cells/well, Th-227 labelled at 375 kBq/nmol, mean of 1 to 6 experiments
In short: as §1

[3] = tested on: LNCaP cells; experiment: Cell proliferation assay (CellTiter-Glo, 5-day exposure), LNCaP; type: cell-based, human; conditions: LNCaP, 1000 cells/well; Th-227 labelled at 375 kBq/nmol; 5-day exposure; mean of 1 to 6 experiments
In short: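 Seed VCaP at 4000 and other lines at 1000 cells/well; culture overnight, 37 °C, 5% CO2; add Th-227 conjugate dilutions (375 kBq/nmol) in triplicate; measure CellTiter-Glo viability on day 0 and day 5.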

[4] = tested on: VCaP cells; experiment: Cell proliferation assay (CellTiter-Glo, 5-day exposure), VCaP; type: cell-based; conditions: 4000 cells/well, Th-227 labelled at 375 kBq/nmol, mean of 1 to 6 experiments
In short: as §1

[5] = tested on: LNCaP human prostate cancer cells; experiment: LNCaP xenograft efficacy study (T/C tumor area); type: in vivo, SCID mice
In short: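 SCID mice with testosterone pellet bearing s.c. flank LNCaP xenografts (5×10^6 cells in Matrigel) were treated i.v. with a defined radioactive dose once tumors reached 35-50 mm^2 (n=10/group). Tumor area (caliper, longest diameter × perpendicular) measured 2-3× weekly; T/C ratio calculated from tumor areas when vehicle group closed.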

[6] = Example II, 750 kBq/kg weekly for 5 weeks, day 120
[7] = Example V, day 27 after start of therapy, once 750 kBq/kg

SMILES | Proliferation assay on cancer cell lines by TTCs Default Pivot #3 IC50 [kBq/mL] 22Rv1 1000cells 375kBq/nmol (mean) [1] [kBq/mL] | Proliferation assay on cancer cell lines by TTCs Default Pivot #3 IC50 [kBq/mL] C4-2 1000cells 375kBq/nmol (mean) [2] [kBq/mL] | Proliferation assay on cancer cell lines by TTCs Default Pivot #3 IC50 [kBq/mL] LnCap 1000cells 375kBq/nmol (mean) [3] [kBq/mL] | Proliferation assay on cancer cell lines by TTCs Default Pivot #3 IC50 [kBq/mL] VCap 4000cells 375kBq/nmol (mean) [4] [kBq/mL] | Mean tumor size [5, 6] [mm^2] | Tumor response [5, 6] | T/Carea ([5]; Example II, day 33 after start of therapy, 750 kBq/kg weekly for 5 weeks) | T/Carea ([5]; Example III, day 64 after start of therapy, single treatment 1.5 MBq/kg) | T/Carea [5, 7] | T/Carea ([5]; Example IV, day 36 after start of therapy, once 1 MBq/kg)
O=C([O-])CN1CCN(CC(=O)[O-])CCN(CC(=O)NCC2CCC(C(=O)NC(Cc3ccc4ccccc4c3)C(=O)NCCCCC(NC(=O)NC(CCC(=O)O)C(=O)O)C(=O)O)CC2)CCN(CC(=O)[O-])CC1.[227Th+4] [Example 1-B-227Th, [^227Th]Thorium (3S,10S,14S)-3-[(naphthalen-2-yl)methyl]-1,4,12-trioxo-1-{(1r,4S)-4-[(2-{4,7,10-tris[(carboxy-kappaO)methyl]-1,4,7,10-tetraazacyclododecan-1-yl-kappa^4N^1,N^4,N^7,N^10}acetamido)methyl]cyclohexyl}-2,5,11,13-tetraazahexadecane-10,14,16-tricarboxylate] | 0.71 | 0.17 | 0.03 | 0.38 | 20 | full response | 0.18 | 0.51 | 0.29 | 
O=C([O-])CN1CCN(CC(=O)[O-])CCN(CC(=O)NCC2CCC(C(=O)NC(Cc3ccc4ccccc4c3)C(=O)NCCCCC(NC(=O)NC(CCC(=O)O)C(=O)O)C(=O)O)CC2)CCN(CC(=O)[O-])CC1.[227Th+4] [Example 1-B-D-227Th, [^227Th]Thorium-(3S,10S,14R)-3-[(naphthalen-2-yl)methyl]-1,4,12-trioxo-1-{(1r,4S)-4-[(2-{4,7,10-tris[(carboxy-kappaO)methyl]-1,4,7,10-tetraazacyclododecan-1-yl-kappa^4N^1,N^4,N^7,N^10}acetamido)methyl]cyclohexyl}-2,5,11,13-tetraazahexadecane-10,14,16-tricarboxylate] | 1.28 | 3.15 | 0.49 | 4.52 |  |  |  |  | 0.91 | 0.81
